# ChEMBL document CHEMBL5614376, “Discovery of MT-1207: A Novel, Potent Multitarget Inhibitor as a Promising Clinical Candidate for the Treatment of Hypertension” (J Med Chem, 2024)
# Active and inactive are the calls of the source. The rule behind the calls is not given here.
# Key:
# [1] = Plasma protein binding in Sprague-Dawley rat at 0.1 uM incubated for 30 mins; type: ADME, cell-free; conditions: read-out: PPB (converted)
# Rattus norvegicus [2] = assay: Antihypertensive activity in 2K2C renovascular hypertensive Sprague-Dawley rat model assessed as decrease in diastolic blood pressure at 10 mg/kg, po measured after 9 weeks; type: functional, organism-based
# [3] = Plasma protein binding in Sprague-Dawley rat at 1 uM incubated for 30 mins; type: ADME, cell-free; conditions: read-out: PPB (converted)
# [4] = Tmax in male Sprague-Dawley rat at 10 mg/kg, po qd treated for 13 weeks consecutively measured after recovery period on day 91 by UP/LC/MS/MS analysis; type: ADME, organism-based; conditions: in vivo, time 91 day
# [5] = Cmax in female Sprague-Dawley rat at 30 mg/kg, po measured on day 1 by UP/LC/MS/MS analysis; type: ADME, organism-based; conditions: in vivo, time 1 day
# [6] = Tmax in Sprague-Dawley rat at 3 mg/kg, po measured for 24 hrs by UPLC/MS/MS analysis; type: ADME, organism-based; conditions: in vivo
# Rattus norvegicus [7] = assay: Effect on serum creatinine level in 2K2C renovascular hypertensive Sprague-Dawley rat model at 10 mg/kg, po measured after 9 weeks by biochemical analysis; type: functional, organism-based
# [8] = Toxicity in Sprague-Dawley rat assessed as notable drug-related change at 10 to 100 mg/kg, po qd treated for 13 weeks consecutively measured after 4 week recovery period; type: organism-based; conditions: in vivo, 2856 h, dose 10-100 mg/kg, time 17 weeks
# [9] = Oral bioavailability in Sprague-Dawley rat at 9 mg/kg measured for 24 hrs by UPLC/MS/MS analysis; type: ADME, organism-based; conditions: in vivo
# [10] = Toxicity in Sprague-Dawley rat at 10 to 100 mg/kg, po qd treated for 13 weeks; type: organism-based; conditions: in vivo, dose 10-100 mg/kg
# [11] = Plasma protein binding in Sprague-Dawley rat at 10 uM incubated for 30 mins; type: ADME, cell-free; conditions: read-out: PPB (converted)
# [12] = Cmax in female Sprague-Dawley rat at 10 mg/kg, po measured on day 1 by UP/LC/MS/MS analysis; type: ADME, organism-based; conditions: in vivo, time 1 day
# [13] = Plasma protein binding in Cynomolgus monkey at 1 uM incubated for 30 mins; type: ADME, cell-free, Macaca fascicularis; conditions: read-out: PPB (converted)
# [14] = Cmax in Sprague-Dawley rat at 1 mg/kg, iv measured for 24 hrs by UPLC/MS/MS analysis; type: ADME, organism-based; conditions: in vivo
# [15] = Tmax in female Sprague-Dawley rat at 10 mg/kg, po qd treated for 13 weeks consecutively measured after recovery period on day 91 by UP/LC/MS/MS analysis; type: ADME, organism-based; conditions: in vivo, time 91 day
# [16] = Tmax in female Sprague-Dawley rat at 10 mg/kg, po measured on day 1 by UP/LC/MS/MS analysis; type: ADME, organism-based; conditions: in vivo, time 1 day
# [17] = Tmax in female Sprague-Dawley rat at 30 mg/kg, po measured on day 1 by UP/LC/MS/MS analysis; type: ADME, organism-based; conditions: in vivo, time 1 day
# Rattus norvegicus [18] = assay: Effect on postural hypotension in Sprague-Dawley rat assessed as change in systolic blood pressure at 2.5 mg/kg, po treated for >30 mins followed by induction of postural hypotension measured 10 secs after postural change (reference value: 127 +/- 12 mmHg); type: functional; conditions: time > 30.17 min, 0.5028 h
# Rattus norvegicus [19] = assay: Effect on heart rate in 2K2C renovascular hypertensive Sprague-Dawley rat model at 10 mg/kg, po measured after 9 weeks; type: functional, organism-based
# [20] = Acute toxicity in Sprague-Dawley rat assessed as discernible drug-related alterations at 250 to 1000 mg/kg, po single administration measured for 14 days; type: organism-based; conditions: in vivo, 336 h, dose 250-1000 mg/kg, time 14 day
# [21] = Apparent volume of distribution during terminal phase in Sprague-Dawley rat at 9 mg/kg, po measured for 24 hrs by UPLC/MS/MS analysis; type: ADME, organism-based; conditions: in vivo, read-out: Vz/F
# Rattus norvegicus [22] = assay: Effect on postural hypotension in Sprague-Dawley rat assessed as change in systolic blood pressure at 10 mg/kg, po treated for >30 mins followed by induction of postural hypotension measured 3 secs after postural change (reference value: 124 +/- 10 mmHg); type: functional; conditions: time > 30.05 min, 0.5008 h
# [23] = AUC (0 to t) in Sprague-Dawley rat at 9 mg/kg, po measured for 24 hrs by UPLC/MS/MS analysis; type: ADME, organism-based; conditions: in vivo
# [24] = AUC (0 to t) in male Sprague-Dawley rat at 10 mg/kg, po qd treated for 13 weeks consecutively measured after recovery period on day 91 by UP/LC/MS/MS analysis; type: ADME, organism-based; conditions: in vivo, time 91 day
# [25] = Acute toxicity in Sprague-Dawley rat assessed as drug tolerance at 250 to 1000 mg/kg, po single administration measured for 14 days; type: organism-based; conditions: in vivo, 336 h, dose 250-1000 mg/kg, time 14 day
# Rattus norvegicus [26] = assay: Effect on serum urea level in 2K2C renovascular hypertensive Sprague-Dawley rat model at 10 mg/kg, po measured after 9 weeks by biochemical analysis; type: functional, organism-based
# [27] = Half life in Sprague-Dawley rat at 9 mg/kg, po measured for 24 hrs by UPLC/MS/MS analysis; type: ADME, organism-based; conditions: in vivo
# [28] = Cmax in female Sprague-Dawley rat at 100 mg/kg, po qd treated for 13 weeks consecutively measured after recovery period on day 91 by UP/LC/MS/MS analysis; type: ADME, organism-based; conditions: in vivo, time 91 day
# Rattus norvegicus [29] = assay: Effect on postural hypotension in Sprague-Dawley rat assessed as change in systolic blood pressure at 2.5 mg/kg, po treated for >30 mins followed by induction of postural hypotension measured 60 secs after postural change (reference value: 127 +/- 10 mmHg); type: functional; conditions: time > 31 min
# [30] = Metabolic stability in Beagle dog liver microsomes assessed as compound remaining at 10 umol/L incubated upto 120 mins in presence of NADPH by LC-MS/MS analysis; type: ADME, Canis lupus familiaris, Microsome; conditions: dose 10 µmol/L, read-out: Stability
# [31] = Metabolic stability in macaque plasma assessed as enzymatic hydrolysis at 50 to 10000 ng/ml incubated upto 120 mins; type: ADME, cell-free; conditions: macaca, 2 h, dose 50-10000 ng/ml
smiles,measurement,setting,value
Cl.c1ccc2c(c1)nnn2CCCCN1CCN(c2nsc3ccccc23)CC1,"fraction unbound at 0.5 h, 0.1 µM",[1],0.022
same,Activity,Rattus norvegicus [2],Active
same,"fraction unbound at 0.5 h, 1 µM",[3],0.019
same,Tmax,[4],1.3 h
same,Cmax,[5],408 ng/mL
same,Tmax,[6],2 h
same,Activity,Rattus norvegicus [7],Active
same,Activity,[8],Non-Toxic
same,bioavailability,[9],15.3%
same,NOAEL at 2184 h,[10],100 mg/kg
same,"fraction unbound at 0.5 h, 10 µM",[11],0.017
same,Cmax,[12],88.7 ng/mL
same,"fraction unbound at 0.5 h, 1 µM",[13],0.006
same,Cmax,[14],468 ng/mL
same,Tmax,[15],1 h
same,Tmax,[16],1.3 h
same,Tmax,[17],1 h
same,Activity,Rattus norvegicus [18],89 mmHg
same,Activity,Rattus norvegicus [19],Active
same,Activity,[20],Non-Toxic
same,Vd/F,[21],78.9 L
same,Activity,Rattus norvegicus [22],81 mmHg
same,AUC(0-t) at 24 h,[23],605 ng·h/mL
same,AUC(0-t) at 2184 h,[24],112 ng·h/mL
same,Activity,[25],Non-Toxic
same,Activity,Rattus norvegicus [26],Active
same,half-life,[27],1.89 h
same,Cmax,[28],745 ng/mL
same,Activity,Rattus norvegicus [29],93 mmHg
same,"remaining at 2 h, 10 µM",[30],6.04%
same,Stability,[31],Stable
